Values after ≈ are worked out from the molar mass of the structure shown.
What was measured:
[1] = molecular target: KRAS G12C (GMPPNP-loaded) and cRAF (Ras-binding domain) interaction (Homo sapiens (Human), UniProt P01116, C118S/C51S/C80L/G12C); assay: Inhibition of KRAS G12C and cRAF binding (AlphaScreen); conditions: KRAS G12C loaded with GMPPNP, cRaf RBD, 2 hours preincubation; read-out: Raf-1 RBD K-Ras IC50
In short: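 GMPPNP-loaded KRAS G12C in 25 mM Hepes pH 7.4, 150 mM NaCl, 5 mM MgCl2, 0.01% Triton X-100, 10 μM GMPPNP, 2% DMSO, preincubated with compound 2 h at room temperature. cRAF RBD plus AlphaScreen beads then added for 60-90 min; signal read at 570 nm.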

[2] = Determination of logD (1-octanol / phosphate buffer pH 7.4); format: physicochemical; conditions: for logD: 1-octanol/phosphate buffer, pH 7.4, pH 7.4, 1-octanol/phosphate buffer, read-out: Log D, pH 7.4
Description: Preparation of phosphate buffer saturated with 1-octanol: 10 mL of 100 mM phosphate buffer (pH 7.4) was added to 100 mL of 1-octanol. The mixture was shaken vigorously and left to stand at room temperature overnight.
Preparation of 1-octanol saturated with phosphate buffer: 10 mL of 1-octanol was added to 100 mL of 100 mM phosphate buffer (pH 7.4). The mixture was shaken vigorously and left to stand at room temperature overnight.
149 μL of phosphate buffer saturated with 1-octanol was added into 1st sample tube. 149 μL of 1-octanol saturated with phosphate buffer was added into the 2nd sample tube. The sample tubes were mixed vigorously and shaken for 1 hour at a speed of 800 rpm at room temperature. The sample tubes were subjected to centrifugation at 4000 rpm for 5 minutes at room temperature. Samples of the supernatant were taken from both tubes, diluted with an appropriate LCMS buffer, and analyzed on an LCMS instrument. LogD was calculated according to the following equation.

[3] = Determination of kinetic solubility (pH 7.4); format: physicochemical; conditions: for solubility kinetic at 2 h: phosphate buffer, pH 7.4, aqueous buffer, kinetic from dmso stock, 50 mM phosphate buffer pH 7.4, read-out: Ksol, pH 7.4
Description: 490 μL of a 50 mM phosphate buffer (pH 7.4) was added to the sample solution. The mixture was vortexed for at least 2 minutes. The vial was shaken on a Barnstead shaker at 800 rpm at room temperature for 2 hours. The vial was centrifuged at 4000 rpm for 20 minutes. The Mini-UniPrep vial was compressed to prepare a filtrate, which was injected into an HPLC-UV and LC-MS/MS system. Kinetic solubility was calculated by referencing sample peak areas to a standard calibration curve.

KRAS G12C (GMPPNP-loaded) and cRAF (Ras-binding domain) interaction, sequence (P01116 other isoform, or with tags, fused parts or gaps G12C/C51S/C80L/C118S): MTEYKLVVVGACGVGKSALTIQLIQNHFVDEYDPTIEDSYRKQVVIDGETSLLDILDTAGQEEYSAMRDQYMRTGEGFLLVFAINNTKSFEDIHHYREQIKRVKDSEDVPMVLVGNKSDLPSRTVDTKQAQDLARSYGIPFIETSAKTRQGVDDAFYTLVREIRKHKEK

SMILES	IC50 [1]	logD [2]	solubility kinetic at 2 h [3]	Log D, pH 7.4 ([2]; pH 7.4, 1-octanol/phosphate buffer)	Ksol, pH 7.4 (ug/mL) ([3]; 50 mM phosphate buffer pH 7.4)
Cc1c(Cl)cccc1-c1ncc2c(N3CCN(C(=O)/C=C/CN4[C@@H]5CC[C@H]4COC5)[C@@H](CC#N)C3)nc(OC[C@@]34CCCN3C[C@H](F)C4)nc2c1F [Compound 273]	< 10 nM	3.1	124 µg/mL (≈ 169 µM)	–	–
C[C@H]1CN(C/C=C/C(=O)N2CCN(c3nc(OC[C@@]45CCCN4C[C@H](F)C5)nc4c(F)c(-c5cccc6ccc(F)c(F)c56)ncc34)C[C@@H]2CC#N)C[C@H](C)O1 [Compound 240]	10 to 100 nM	3.42	49.5 µg/mL (≈ 64 µM)	–	–
N#CC[C@H]1CN(c2nc(OCC34CCCN3CCC4)nc3c2CCN(c2cccc4cccc(Cl)c24)C3)CCN1C(=O)/C=C/c1nc([C@H]2C[C@@H]2F)no1 [Compound 36]	10 to 100 nM	3.98	2.62 µg/mL (≈ 3.55 µM)	–	–
N#CC[C@H]1CN(c2nc(OC[C@@]34CCCN3C[C@H](F)C4)nc3c(F)c(-c4cccc5cccc(Cl)c45)ncc23)CCN1C(=O)/C=C/CN1CC[C@@H]2COC[C@H]21 [Compound 298]	< 10 nM	2.99	118 µg/mL (≈ 153 µM)	–	–
CC(C)c1noc(/C=C/C(=O)N2CCN(c3nc(OC[C@@]45CCCN4C[C@H](F)C5)nc4c(F)c(-c5nc(N)cc6cccc(Cl)c56)ncc34)C[C@@H]2CC#N)n1 [Compound 122]	10 to 100 nM	3.43	0.44 µg/mL (≈ 0.571 µM)	–	–
N#CC[C@H]1CN(c2nc(OC[C@@]34CCCN3C[C@H](O)C4)nc3c(F)c(-c4cccc5cccc(Cl)c45)ncc23)CCN1C(=O)/C=C/CN1CCOCC1 [Compound 319]	< 10 nM	1.54	123 µg/mL (≈ 166 µM)	–	–
Cc1nsc(/C=C/C(=O)N2CCN(c3nc(OC[C@@]45CCCN4C[C@H](F)C5)nc4c(F)c(-c5nc(N)cc(C)c5C(F)(F)F)ncc34)C[C@@H]2CC#N)n1 [Compound 142]	< 10 nM	2.55	106 µg/mL (≈ 140 µM)	–	–
N#CC[C@H]1CN(c2nc(OC[C@@]34CCCN3C[C@H](F)C4)nc3c(F)c(-c4cccc(Cl)c4C(F)(F)F)ncc23)CCN1C(=O)/C=C/CN1C[C@H]2C[C@@H]1CO2 [Compound 294]	< 10 nM	2.59	127 µg/mL (≈ 165 µM)	–	–
N#CC[C@H]1CN(c2nc(OC[C@@]34CCCN3C[C@H](O)C4)nc3c2CCN(c2cccc4cccc(Cl)c24)C3)CCN1C(=O)/C=C/CN1CCOCC1 [Compound 316]	< 10 nM	2.66	124 µg/mL (≈ 170 µM)	–	–
Cn1cc(/C=C/C(=O)N2CCN(c3nc(OCC45CCCN4CCC5)nc4c3CCN(c3cccc5cccc(Cl)c35)C4)C[C@@H]2CC#N)nn1 [Compound 117]	> 500 nM	2.65	112 µg/mL (≈ 161 µM)	–	–
N#CC[C@H]1CN(c2nc(OC[C@@]34CCCN3C[C@H](F)C4)nc3c(F)c(-c4cccc5ccc(F)c(Cl)c45)ncc23)CCN1C(=O)/C=C/CN1CCOC2CC21 (stereo partly drawn) [Compound 160]	< 10 nM	3.33	86.8 µg/mL (≈ 112 µM)	–	–
N#CC[C@H]1CN(c2nc(OC[C@@]34CCCN3C[C@H](F)C4)nc3c(F)c(-c4cccc(Cl)c4C(F)(F)F)ncc23)CCN1C(=O)/C=C/CN1CC2CC(C1)O2 [Compound 295]	< 10 nM	2.75	102 µg/mL (≈ 132 µM)	–	–
N#CC[C@H]1CN(c2nc(OCC34CCCN3CCC4)nc3c2CCN(c2cccc4cccc(Cl)c24)C3)CCN1C(=O)/C=C/CN1C[C@@H]2C[C@H]1CO2 [Compound 62]	< 10 nM	2.06	95.1 µg/mL (≈ 131 µM)	–	–
C[C@H]1CN(C/C=C/C(=O)N2CCN(c3nc(OC[C@@]45CCCN4C[C@H](F)C5)nc4c(F)c(-c5cccc6cccc(F)c56)ncc34)C[C@@H]2CC#N)C[C@H](C)O1 [Compound 235]	10 to 100 nM	3.75	72.5 µg/mL (≈ 96.1 µM)	–	–
Cn1cnc(/C=C/C(=O)N2CCN(c3nc(OCC45CCCN4CCC5)nc4c3CCN(c3cccc5cccc(Cl)c35)C4)C[C@@H]2CC#N)c1 [Compound 22]	> 500 nM	2.92	77.7 µg/mL (≈ 112 µM)	–	–
N#CC[C@H]1CN(c2nc(OC[C@@]34CCCN3C[C@H](F)C4)nc3c(F)c(-c4cccc(Cl)c4C(F)(F)F)ncc23)CCN1C(=O)/C=C/CN1C[C@@H]2C[C@H]1CO2 [Compound 293]	< 10 nM	2.54	96.7 µg/mL (≈ 125 µM)	–	–
N#CC[C@H]1CN(c2nc(OC[C@@]34CCCN3C[C@H](F)C4)nc3c(F)c(-c4ccccc4C(F)F)ncc23)CCN1C(=O)/C=C/CN1[C@@H]2CC[C@H]1COC2 [Compound 289]	10 to 100 nM	2.16	140 µg/mL (≈ 190 µM)	–	–
C#Cc1c(F)ccc2cccc(-c3ncc4c(N5CCN(C(=O)/C=C/CN6CC7CC(C6)O7)[C@@H](CC#N)C5)nc(OC[C@@]56CCCN5C[C@H](F)C6)nc4c3F)c12 [Compound 256]	< 10 nM	2.71	101 µg/mL (≈ 133 µM)	–	–
N#CC[C@H]1CN(c2nc(OC[C@@]34CCCN3C[C@H](F)C4)nc3c(F)c(-c4cccc(Cl)c4C4CC4)ncc23)CCN1C(=O)/C=C/CN1C[C@H]2C[C@@H]1CO2 [Compound 276]	< 10 nM	3	108 µg/mL (≈ 145 µM)	–	–
Cc1noc(/C=C/C(=O)N2CCN(c3nc(OCC45CCCN4CCC5)nc4c3CCN(c3cccc5cccc(Cl)c35)C4)C[C@@H]2CC#N)n1 [Compound 32]	10 to 100 nM	–	–	3.62	79.78 ug/mL
N#CC[C@H]1CN(c2nc(OCC34CCCN3CCC4)nc3c(F)c(-c4cccc5cccc(Cl)c45)ncc23)CCN1C(=O)/C=C/c1nc([C@H]2C[C@@H]2F)no1 [Compound 38]	100 to 500 nM	2.91	53.9 µg/mL (≈ 71.7 µM)	–	–
Cc1cc(N)nc([C@H]2Cc3nc(OC[C@@]45CCCN4C[C@H](F)C5)nc(N4CCN(C(=O)/C=C/CN(C)C)[C@@H](CC#N)C4)c3C[C@@H]2C)c1C(F)(F)F [Compound 323]	100 to 500 nM	2.71	74.5 µg/mL (≈ 104 µM)	–	–
C[C@H]1CN(C/C=C/C(=O)N2CCN(c3nc(OC[C@@]45CCCN4C[C@H](F)C5)nc4c(F)c(-c5cccc(Cl)c5C5CC5)ncc34)C[C@@H]2CC#N)C[C@H](C)O1 [Compound 302]	< 10 nM	4.21	118 µg/mL (≈ 155 µM)	–	–
N#CC[C@H]1CN(c2nc(OC[C@@]34CCCN3C[C@H](F)C4)nc3c(F)c(-c4cccc5cccc(Cl)c45)ncc23)CCN1C(=O)/C=C/c1nc(C2CC2)ncc1F [Compound 158]	100 to 500 nM	4.52	0.01 µg/mL (≈ 0.0128 µM)	–	–
N#CC[C@H]1CN(c2nc(OC[C@@]34CCCN3C[C@H](F)C4)nc3c(F)c(-c4cccc5cccc(Cl)c45)ncc23)CCN1C(=O)/C=C/CN1C[C@@H]2CC[C@H]1CO2 [Compound 259]	< 10 nM	2.92	147 µg/mL (≈ 191 µM)	–	–
CC(C)(O)c1noc(/C=C/C(=O)N2CCN(c3nc(OCC45CCCN4CCC5)nc4c3CCN(c3cccc5cccc(Cl)c35)C4)C[C@@H]2CC#N)n1 [Example 16, (S,E)-2-(4-(7-(8-chloronaphthalen-1-yl)-2-((hexahydro-1H-pyrrolizin-7a-yl)methoxy)-5,6,7,8-tetrahydropyrido[3,4-d]pyrimidin-4-yl)-1-(3-(3-(2-hydroxypropan-2-yl)-1,2,4-oxadiazol-5-yl)acryloyl)piperazin-2-yl)acetonitrile]	10 to 100 nM	3.04	73.1 µg/mL (≈ 99 µM)	–	–

Source: patent US20250129103A1, “METHODS FOR TREATMENT OF CANCER” (Frontier Medicines Corporation, priority 2022, published 2025)
